Laboratory results published in patent US12544375B2, “Small molecule therapeutic for parkinson's disease paired with a biomarker of therapeutic activity” (The Board of Trustees of the Leland Stanford Junior …, priority 2019, dated 2026).

System: healthy-1 or PD-2 fibroblasts
Assay: Peroxisome movement or distribution, EGFP-peroxisome live imaging
Type: cell-based, human
Conditions: 10 μM for 30 hrs
Protocol: FIG. 8. Related to FIG. 2-4. Miro1 Reducer in Human Cell and Fly Models. (A) Fibroblasts from Healthy-1 and PD-2 were treated, lysed, and blotted as indicated. Band intensities are normalized to those of GAPDH from the same blots and compared to “Healthy-1, no treatment”. n=4 independent experiments. (B) Fibroblasts from PD-2 were treated and immunostained as indicated. The intensity was quantified for each cell across 264-320 cells from 3 independent experiments, compared to “no treatment”. (C) Fibroblasts were treated, immunoprecipitated (IPed) with anti-Miro1, and blotted as indicated. Similar results were observed twice. (D) Similar as in (C), fibroblasts were treated as indicated, and IPed with anti-Miro1. The GTPase activity of the IPed Miro1 protein was measured as described in Method. […] The MitoSox intensity was quantified for each cell across 106-161 cells from 3 coverslips. […] The TMRM intensity was measured for each cell across 48-60 cells from 3 independent experiments, and expressed as a fraction of the mean of “Healthy-1, no treatment”. […] The movement (the intensity of non-yellow) was quantified for each cell as described in (Tsai et al., 2014) across 22-31 cells from 3 transfections. […] (1) Left: The percentage of TH-positive iPSC-derived neurons out of total cells (Dapi-positive) is calculated after immunocytochemistry under 20× as described in FIG. 3. […]

O=C(Nc1ccc(Nc2cc(-n3ccnc3)ncn2)cc1)Nc1cccc(F)c1 [Miro1 Reducer]
peroxisome movement or distribution: did not affect
